These results are taken from US20100099897A1, “STABLE ANHYDROUS CRYSTALLINE DOCETAXEL AND METHOD FOR THE PREPARATION THEREOF” (HANMI PHARM. CO., LTD., priority 2007, published 2010).

The nature of data set [1]: Storage for 7 days at 40° C. under a relative humidity of 25% to 50%. It is filed as physicochemical. As to conditions: comparable condition: 7 days, relative humidity 25% to 50%.
Data set [2] is described as follows: Stability under a high temperature/humidity condition (HPLC purity after aging). As to conditions: for Purity after 1 week / Purity after 2 weeks / Purity after 4 weeks / Initial purity / Purity after 8 weeks: HPLC; for Initial purity: before aging. It is filed as physicochemical. Here is the method:
The long-term storage stabilities of anhydrous crystalline forms of docetaxel prepared in Examples 1, 4, 5, and 6, respectively were compared with that of docetaxel trihydrate prepared according to the method of U.S. Pat. No. 6,022,985 by subjecting sample thereof to aging under a high temperature/humidity condition (60±2° C.; 75±5% relative humidity). The amounts of the original compound in each sample after 1, 2, 4 and 8 weeks were determined by high performance liquid chromatography (HPLC).

Where [3] appears, read: 60±2° C., 75±5% relative humidity.

In the case of `CC(=O)O[C@@]12CO[C@@H]1C[C@H](O)[C@@]1(C)C(=O)[C@H](O)C3=C(C)[C@@H](OC(=O)[C@H](O)[C@@H](NC(=O)OC(C)(C)C)c4ccccc4)C[C@@](O)([C@@H](OC(=O)c4ccccc4)[C@H]21)C3(C)C` [Docetaxel trihydrate, docetaxel trihydrate, reference compound], the Dehydration during storage result in data set [1] was “at least 50%”. Also, in data set [2] (setting [3]), the “Purity after 1 week” value stood at 99.3%, the “Purity after 2 weeks” value is recorded as 99.0% and the “Purity after 4 weeks” value turned out to be 98.7%. The “Storage stability under a high temperature/humidity condition (in words)” value in data set [2] (60±2° C., 75±5% relative humidity, up to 8 weeks) was “rapid degradation”. In data set [2], this molecule registered an Initial purity of 99.4%.
`CC(=O)O[C@@]12CO[C@@H]1C[C@H](O)[C@@]1(C)C(=O)[C@H](O)C3=C(C)[C@@H](OC(=O)[C@H](O)[C@@H](NC(=O)OC(C)(C)C)c4ccccc4)C[C@@](O)([C@@H](OC(=O)c4ccccc4)[C@H]21)C3(C)C` [Example 1, docetaxel]: in data set [2] (setting [3]), the “Purity after 1 week” value is 99.8%, the “Purity after 2 weeks” value is 99.8%, the “Purity after 4 weeks” value came to 99.7% and the “Purity after 8 weeks” value is 99.6%. The same molecule registered an Initial purity in data set [2] of 99.8%.
As for `CC(=O)O[C@@]12CO[C@@H]1C[C@H](O)[C@@]1(C)C(=O)[C@H](O)C3=C(C)[C@@H](OC(=O)[C@H](O)[C@@H](NC(=O)OC(C)(C)C)c4ccccc4)C[C@@](O)([C@@H](OC(=O)c4ccccc4)[C@H]21)C3(C)C` [Example 4, docetaxel], in data set [2] (setting [3]), the “Purity after 1 week” value is 99.8%, the “Purity after 2 weeks” value stood at 99.7%, the “Purity after 4 weeks” value amounted to 99.6% and the “Purity after 8 weeks” value worked out at 99.5%. The molecule also showed an Initial purity in data set [2] of 99.8%.
Regarding `CC(=O)O[C@@]12CO[C@@H]1C[C@H](O)[C@@]1(C)C(=O)[C@H](O)C3=C(C)[C@@H](OC(=O)[C@H](O)[C@@H](NC(=O)OC(C)(C)C)c4ccccc4)C[C@@](O)([C@@H](OC(=O)c4ccccc4)[C@H]21)C3(C)C` [Example 5, docetaxel], in data set [2] (setting [3]), the “Purity after 1 week” value came out at 99.7%, the “Purity after 2 weeks” value is recorded as 99.7%, the “Purity after 4 weeks” value is 99.6% and the “Purity after 8 weeks” value is 99.6%. In data set [2], this molecule came in with an Initial purity of 99.7%.
Consider `CC(=O)O[C@@]12CO[C@@H]1C[C@H](O)[C@@]1(C)C(=O)[C@H](O)C3=C(C)[C@@H](OC(=O)[C@H](O)[C@@H](NC(=O)OC(C)(C)C)c4ccccc4)C[C@@](O)([C@@H](OC(=O)c4ccccc4)[C@H]21)C3(C)C` [Example 6, docetaxel], for which, in data set [2] (setting [3]), the “Purity after 1 week” value amounted to 99.7%, the “Purity after 2 weeks” value is 99.7%, the “Purity after 4 weeks” value came out at 99.6% and the “Purity after 8 weeks” value turned out to be 99.5%. The molecule also returned an Initial purity in data set [2] of 99.7%.
